Source: the CheMixHub viscosity set
± gives the uncertainty stated by the source.

Assay: xn = mol fraction of the nth substance listed

CC(C)c1ccccc1 + c1ccccc1
Conditions	viscosity [mPa·s]
293.15 K, 101.33 kPa, x2 = 0.3728	0.721 ± 0.013
293.15 K, 101.33 kPa, x2 = 0.5889	0.693 ± 0.0096
293.15 K, 101.33 kPa, x2 = 0.8176	0.66 ± 0.0068
293.15 K, 101.33 kPa, x2 = 0.9057	0.653 ± 0.0062
303.15 K, 101.3 kPa, x2 = 0.1245	0.6683 ± 0.0056
303.15 K, 101.3 kPa, x2 = 0.2644	0.6483 ± 0.0055
303.15 K, 101.3 kPa, x2 = 0.4246	0.6265 ± 0.0054
303.15 K, 101.3 kPa, x2 = 0.5391	0.6111 ± 0.0053
303.15 K, 101.3 kPa, x2 = 0.5606	0.6069 ± 0.0052
303.15 K, 101.3 kPa, x2 = 0.6382	0.5972 ± 0.0052
303.15 K, 101.3 kPa, x2 = 0.6478	0.5958 ± 0.0052
303.15 K, 101.3 kPa, x2 = 0.7409	0.5819 ± 0.0051
303.15 K, 101.3 kPa, x2 = 0.831	0.5721 ± 0.005
303.15 K, 101.3 kPa, x2 = 0.919	0.5634 ± 0.0049
303.15 K, 101.33 kPa, x2 = 0.3728	0.63 ± 0.011
303.15 K, 101.33 kPa, x2 = 0.5889	0.607 ± 0.0084
303.15 K, 101.33 kPa, x2 = 0.8176	0.575 ± 0.006
303.15 K, 101.33 kPa, x2 = 0.9057	0.563 ± 0.0054
313.15 K, 101.33 kPa, x2 = 0.3728	0.56 ± 0.01
313.15 K, 101.33 kPa, x2 = 0.5889	0.537 ± 0.0075
313.15 K, 101.33 kPa, x2 = 0.8176	0.512 ± 0.0054
313.15 K, 101.33 kPa, x2 = 0.9057	0.496 ± 0.0048
323.15 K, 101.33 kPa, x2 = 0.3728	0.499 ± 0.0092
323.15 K, 101.33 kPa, x2 = 0.5889	0.479 ± 0.0068
323.15 K, 101.33 kPa, x2 = 0.8176	0.454 ± 0.0049
323.15 K, 101.33 kPa, x2 = 0.9057	0.441 ± 0.0044

CCCCCCCC(=O)O + c1ccccc1
298.15 K, 101 kPa
Conditions	viscosity [mPa·s]
x1 = 0.03	0.638 ± 0.017
x1 = 0.057	0.68 ± 0.018
x1 = 0.087	0.727 ± 0.019
x1 = 0.12	0.781 ± 0.021
x1 = 0.27	1.072 ± 0.028
x1 = 0.35	1.295 ± 0.034
x1 = 0.45	1.591 ± 0.042
x1 = 0.68	2.505 ± 0.065

CCCCOC(C)=O + c1ccccc1
viscosity [mPa·s], 101 kPa
Conditions	298.15 K	308.15 K
x1 = 0.0487	0.601 ± 0.005	0.527 ± 0.005
x1 = 0.1494	0.598 ± 0.005	0.528 ± 0.005
x1 = 0.2494	0.598 ± 0.005	0.532 ± 0.005
x1 = 0.3494	0.6 ± 0.005	0.536 ± 0.005
x1 = 0.4454	0.604 ± 0.005	0.541 ± 0.005
x1 = 0.4954	0.607 ± 0.005	0.544 ± 0.005
x1 = 0.5489	0.611 ± 0.005	0.548 ± 0.005
x1 = 0.6497	0.62 ± 0.005	0.556 ± 0.005
x1 = 0.7503	0.632 ± 0.005	0.565 ± 0.005
x1 = 0.8496	0.647 ± 0.005	0.575 ± 0.005
x1 = 0.9424	0.663 ± 0.005	0.586 ± 0.005

CCCN + c1ccccc1
viscosity [mPa·s], 101 kPa
Conditions	x1 = 0.007866	x1 = 0.01864	x1 = 0.02795	x1 = 0.03664	x1 = 0.04697	x1 = 0.0579	x1 = 0.06586	x1 = 0.07593	x1 = 0.08436
303.15 K	0.5618 ± 0.0043	0.5605 ± 0.0043	0.5588 ± 0.0043	0.5574 ± 0.0043	0.5554 ± 0.0043	0.5534 ± 0.0043	0.552 ± 0.0042	0.5501 ± 0.0042	0.548 ± 0.0042
313.15 K	0.4898 ± 0.0039	0.4864 ± 0.0039	0.4837 ± 0.0039	0.4817 ± 0.0039	0.4766 ± 0.0039	0.4725 ± 0.0039	0.4704 ± 0.0039	0.467 ± 0.0038	0.4636 ± 0.0038

OCCc1ccccc1 + c1ccccc1
293.15 K, 101.32 kPa
Conditions	viscosity [mPa·s]
x1 = 0.01771	0.6624 ± 0.13
x1 = 0.04031	0.6965 ± 0.14
x1 = 0.0739	0.7584 ± 0.15
x1 = 0.1095	0.8402 ± 0.17
x1 = 0.1585	0.985 ± 0.2

Oc1ccccc1Cl + c1ccncc1
viscosity [mPa·s], 101 kPa
Conditions	293.15 K	303.15 K	313.15 K
x1 = 0.07182	1.158 ± 0.011	0.994 ± 0.01	0.863 ± 0.009
x1 = 0.1451	1.459 ± 0.014	1.249 ± 0.012	1.073 ± 0.01
x1 = 0.2211	1.903 ± 0.019	1.588 ± 0.015	1.351 ± 0.013
x1 = 0.311	2.62 ± 0.026	2.152 ± 0.021	1.773 ± 0.017
x1 = 0.395	3.69 ± 0.04	2.96 ± 0.03	2.31 ± 0.023
x1 = 0.4815	5.28 ± 0.06	3.92 ± 0.04	2.98 ± 0.029
x1 = 0.5607	6.82 ± 0.08	4.72 ± 0.05	3.53 ± 0.04
x1 = 0.6186	7.8 ± 0.1	5.22 ± 0.06	3.78 ± 0.04
x1 = 0.6723	8.23 ± 0.11	5.4 ± 0.06	3.84 ± 0.04
x1 = 0.7248	8.16 ± 0.11	5.36 ± 0.06	3.78 ± 0.04
x1 = 0.7794	7.58 ± 0.1	5.04 ± 0.06	3.55 ± 0.04
x1 = 0.8837	5.97 ± 0.08	4.11 ± 0.05	2.94 ± 0.03
